Test results from patent US11725204B2, “Multiplex genome engineering in eukaryotes” (priority 2016, dated 2023).

Key:
Format in all cases: cell-based, S. cerevisiae
URA3 = assay: Spontaneous URA3 mutations with transient HU treatment
Method: Experiments were designed to determine if transient treatment with HU would increase the efficiency for ssODN annealing at the replication fork. A 30 minute treatment with 500 mM HU increased the ARF by ˜two-fold compared to the untreated condition. Seven different ssODNs containing a single base-pair mismatch (ssODNs 1,2,5-7), insertion (ssODN #4), or deletion (ssODN #3) in ADE2 were tested and an average ARF increase of 56% (FIG. 2A) was observed. […] The effect of ssODN size and concentration was also tested. Robust cell survival post electroporation (85%) was tested for ssODN concentrations up to 20 uM, which decreased to 45% at 80 uM ssODN. The efficiency of URA3 single-plex targeting increased with increasing ssODN size and concentration with the highest ARF observed (0.08%) for 100nt ssODN at 60 uM. For coupled ADE2-URA3 targeting an optimum ade2 mutant per 5-FOA CFU was determined using a 90nt ssODN at 20 uM. For all subsequent experiments 90nt ssODNs at 20 uM were used.

ADE2 [1] = assay: Multiplex incorporation of ssODNs and cycling (colony PCR and Sanger sequencing); settings: 10-target multiplexing, with HU
Method: For multiplex eMAGE experiments targeting ADE2, red clones that grew on 5-FOA plates were assayed via yeast colony PCR and Sanger sequencing (Genewiz). Insertions were chosen for easy sequence detection since degenerate mismatches would contain WT sequence positions. For cycling experiments, cells were recovered in recovery media after electroporation as described above. After recovery, the population was subjected to liquid selection in 5-FOA for odd cycles and CSM-Ura for even numbered cycles to enrich for edited clones. Selections were performed for 500 uL of recovery culture seeded into 50 mL of selection medium and grown to saturation at 30° C. (˜2 days).
After the first 1:100 selection the population was diluted 1:50 in selection media and grown for 6 hours for the next electroporation step. The process was repeated for 3 cycles. A total of 100 red clones were sequenced after each cycle. For cycles 1 and 2, 200 unique genotypes were observed out of […], but for cycle 3, 76 unique genotypes were observed out of the 100 clones sequenced. Given that the degeneracy of the ssODN pool largely out-scales the number of clones assayed redundant genotypes would not be expected to arise for independent clones in any cycle assayed. The 24 redundant clones observed in cycle 3 were comprised of 5 genotypes. […]

[2] = test system: target sites at increasing distances from the URA3 marker; assay: Target distance efficiency determination (red/white screening or colony PCR with EcoRI digestion); settings: +HU
Method: Target mutation distance is reported as the distance between the URA3 marker mutation incorporated by the selection-ssODN and the mutation incorporated by the target-ssODN. For target distances of 1 and 2 kb, ssODNs ADE290RC and ADE2_Mult10 were used within the ADE2 gene and the ARFs for these sites were determined by red/white phenotype screening. For targets at 5, 10, 15, and 20 kb distances from the Ori-URA3, target sites were chosen that differ by only a single base-pair from an EcoRI restriction site. The target ssODN was designed to incorporate a base-pair change to create the EcoRI restriction site. For each target assayed, 96 clones were analyzed by colony PCR (Primers for the amplicons analyzed are listed in Table 3) coupled to EcoRI (NEB) digestion of the amplicon for 1 hr at 37° C. The percentage of amplicons cut vs. uncut is represented as the ARF for each distance site. Each distance experiment was performed in triplicate+/−HU treatment. ARF values represent mean+/−SD.

ADE2 [3] = assay: eMAGE allelic replacement frequency at Ori-URA3-ADE2 locus (5-FOA selection, red/white screening)
Method: A list of ssODNs used for FIGS. 1-4 in this study can be found in Table 2. For eMAGE experiments, a single colony was inoculated in 2 mL CSM-Ura medium and grown overnight to saturation. The next day the culture was diluted 1:50 in 10 mL of CSM-Ura and grown for 6 hours prior to electroporation. The ssODN concentration and size were determined from optimization experiments performed in Figure S2D,F. A total of 20 uM of 90nt ssODNs consisting of 50% selection ssODN 50% target ssODN(s) was used for eMAGE transformations. The optimal HU concentration was determined from figure S2A. The eMAGE pretreatment mixture contained 500 mM HU in TE pH 8/500 mM Lithium Acetate/25 mM DTT. Electroporation for eMAGE was performed exactly as described above. After 12 hours of recovery, ˜10^5 cells were plated on 5-FOA selection plates for msh2Δ and MMR mutant strains and ˜10^7 cells were plated for strains with WT MMR. The resultant 5-FOA plates contained ˜100 colonies which were subject to screening for target ssODN incorporation. The indicated ARF values represent mean+/−SD. All data sets were collected in triplicate. For the Rad51 chemical inhibitor experiment (Figure S1J) the recovery medium was supplemented with inhibitor RI-1 (Abcam ab144558)+1.5% DMSO for solubility.
Experiments were designed to determine if Rad51-dependent ssODN recombination and incorporation of ssODNs at the DNA replication fork are two distinct pathways in eukaryotes (FIG. 1A). Unlike the E. coli chromosome, the linear chromosomes of S. cerevisiae contain multiple firing origins of replication that confound the precise designation of the lagging strand at each locus (Raghuraman, et al., Science, 294:115-121 (2001); Wyrick, et al., Science, 294:2357-2360 (2001)). Sherman and colleagues observed high frequencies of co-transformation for two ssODNs targeted within a cyc1 mutant gene when one of the ssODNs included a selectable mutation (Yamamoto, et al., Yeast, 8:935-948 (1992a)). […] Experiments were designed to determine whether Sherman's observation could be expanded for ssODNs targeting multiple proximal genes by constructing an experimental locus on chromosome XV with a defined DNA replication direction by placing the URA3 gene proximal to the origin ARS1516 (Ori) directly adjacent to ADE2, which confers a colorimetric phenotype (WT=white; Mutant=red) (FIG. 1C). Cells were transformed with ssODNs targeting the predicted lagging strand of both URA3 and ADE2, and it was observed that ssODN-derived modifications at ADE2 were increased by >10^4-fold (ARF=22%) in URA3-edited (5-FOA resistant) clones (FIG. 1C). […]

Structure (SMILES) | spontaneous URA3 mutations (URA3) | multiplex enhancement of ssODN incorporation (ADE2 [1]; WT) | mean number of ssODNs incorporated (ADE2 [1]; msh2Δ) [per clone] | ARF vs target distance curve fit, Y0 ([2]; one-phase decay Y=(Y0−Z)*exp(−K*X)+Z) | ARF vs target distance curve fit, K ([2]; one-phase decay fit) | ARF vs target distance curve fit, Z ([2]; one-phase decay fit) | increase of ARF compared to the untreated condition (ADE2 [3]; 30 minute treatment with 500 mM HU) | HU effect on ARF with HIS3 selection marker (ADE2 [3]; HIS3 selection marker in replace of URA3) | average ARF increase (ADE2 [3]; HU treatment, seven ssODNs with single base-pair mismatch, insertion or deletion in ADE2) [%] | ARF change with Rad51 inhibitor (ADE2 [3]; recovery medium supplemented with RI-1 + 1.5% DMSO)
NC(=O)NO [HU, Hydroxyurea] | no significant increase | no multiplex enhancement | 3.4 | 49.6 | 0.279 | 2.25 | two-fold | HU effect was also observed | 56 | 
O=C1C(Cl)=C(N2CCOCC2)C(=O)N1c1ccc(Cl)c(Cl)c1 [RI-1] |  |  |  |  |  |  |  |  |  | ARF enhancement was observed
